The source of these data is PubChem BioAssay AID1949 (Southern Research Institute, 2009).

The subject of this assay is M. tuberculosis H37Rv growth inhibition. Briefly: Mycobacterium tuberculosis H37Rv growth inhibition, cell based, confirmatory dose response (AID 1949).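 Further: bacteria grown 7 days with compound before Alamar blue readout.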

SMILES strings stand for the structures. ≈ marks a conversion by molar mass, not a printed value. Inconclusive results are not listed. Calls of active or inactive are those of the source. How the calls were made is not given here. Bounds are passed on as bounds.

As a reminder, the IC50 is the concentration needed to halve the response being measured.

As for `O=C(/C=C/c1cccc(C(F)(F)F)c1)Nc1cccc(Br)c1`, the 50% inhibitory concentration (IC50) is 1.39 µg/mL (≈ 3.76 µM).

Consider `COCCCN1C(=O)c2cccc3c([N+](=O)[O-])ccc(c23)C1=O`, for which the IC50 was 15.3 µg/mL (≈ 48.7 µM).

As for `Cc1cc(OCCCCn2ccnc2)cc(C(C)C)c1`, the IC50 is 2.03 µg/mL (≈ 7.45 µM).

`O=C(CC1(O)C(=O)N(CCc2ccccc2)c2ccc(Cl)cc21)c1ccc2c(c1)OCCO2` (configuration not stated): the IC50 was 7.71 µg/mL (≈ 16.6 µM).

Turning to `C/C(=N/Nc1nc(C)c(C)s1)c1ccc(Br)cc1`, the IC50 is 0.59 µg/mL (≈ 1.82 µM).

Regarding `Cc1cccc(-n2c(N)cc(=O)nc2SCC(=O)Nc2nc(-c3ccccc3)cs2)c1`, the IC50 was 3.08 µg/mL (≈ 6.85 µM).

Regarding `CCC(C)(C)C1CCc2sc3ncnc(N4CCN(C)CC4)c3c2C1` (configuration not stated), the IC50 is 6.39 µg/mL (≈ 17.8 µM).

Turning to `CCN(CC)c1ccc(NC(=O)C(C)Oc2cccc(Cl)c2)cc1` (configuration not stated), the half-inhibitory concentration (IC50) is 6.4 µg/mL (≈ 18.5 µM).

With `Cc1cc(C)cc(OCC(=O)c2ccc(Br)cc2)c1`, the IC50 is 6.8 µg/mL (≈ 21.3 µM).

`O=[N+]([O-])c1c(Sc2ncnc3ccccc23)ccc2nsnc12`: the half-inhibitory concentration (IC50) is 22.2 µg/mL (≈ 65.1 µM).

In the case of `O=S(=O)(Nc1cc(Sc2ccccc2)c(O)c2ccccc12)c1cccs1`, the IC50 is 25.7 µg/mL (≈ 62.2 µM).

On to `COc1ccc2nc(/C(C#N)=C\c3ccc(SC)cc3)[nH]c2c1`, for which the 50% inhibitory concentration (IC50) was 7.56 µg/mL (≈ 23.5 µM).

On to `CC(C(=O)Oc1cccc2cccnc12)N1C(=O)c2ccccc2C1=O` (configuration not stated), for which the IC50 was 4.4 µg/mL (≈ 12.7 µM).

As for `CN1CCC(O)(c2cccs2)C(C(=O)c2cccs2)C1` (configuration not stated), the IC50 was 1.54 µg/mL (≈ 5.01 µM).

Regarding `Cc1ccc(NCCC(=O)c2ccc([N+](=O)[O-])cc2)cc1Cl`, the IC50 is 19.6 µg/mL (≈ 61.3 µM).

Consider `CCCCC(=O)Nc1ccc(C(=O)N2CCN(c3cccc(C(F)(F)F)c3)CC2)cc1`, for which the half-inhibitory concentration (IC50) was 9.86 µg/mL (≈ 22.7 µM).

In the case of `CCOC(=O)c1c(NC(=O)CN2CCN(C)CC2)sc2c1CCC(C)C2` (configuration not stated), the IC50 is 5.8 µg/mL (≈ 15.3 µM).

For the compound `O=C(Nc1ccc(Cl)c(Cl)c1)Nc1ccc(Br)cc1F`, the IC50 was 0.37 µg/mL (≈ 0.979 µM).

For `Clc1ccc(OCCCCn2ccnc2)cc1Cl`, the IC50 was 2.01 µg/mL (≈ 7.05 µM).

On to `O=C(O)c1ccc(NC(=S)NC(=O)c2ccc(-c3ccccc3)cc2)cc1`, for which the IC50 is 1.58 µg/mL (≈ 4.2 µM).

Regarding `O=[N+]([O-])c1ccc(Sc2n[nH]c(-c3ccccc3)n2)nc1`, the IC50 is 10 µg/mL (≈ 33.5 µM).

Turning to `Clc1ccc(OCCCNCc2ccccc2)c2ccccc12`, the IC50 was 1.36 µg/mL (≈ 4.17 µM).

Turning to `Cc1ccccc1OCCCCn1cnc2ccccc21`, the IC50 was 6.34 µg/mL (≈ 22.6 µM).

As for `CCOC(=O)c1c(NC(=O)COc2ccc(C(C)C)cc2)sc2c1CCC2`, the IC50 was 2.77 µg/mL (≈ 7.15 µM).

With `O=[N+]([O-])c1ccc(-c2[nH]c(-c3cccs3)nc2-c2ccccc2)cc1`, the IC50 is 2.86 µg/mL (≈ 8.23 µM).

For the compound `CCCn1c(NCc2ccc(Br)cc2)nc2ccccc21`, the half-inhibitory concentration (IC50) was 4.3 µg/mL (≈ 12.5 µM).

Take `CCOC(=O)c1sc(NC(=S)NC2CCN(Cc3ccccc3)CC2)c(C(=O)OCC)c1C`: the IC50 was > 50 µg/mL (inactive).

In the case of `Cc1ccc2[nH]c3c(c2c1)CCCC3NCCCOc1ccc(F)cc1` (configuration not stated), the IC50 was 1.7 µg/mL (≈ 4.82 µM).

With `COc1cccc(CN2CCC(N(CCc3ccccc3)Cc3ccccc3)CC2)c1OC`, the IC50 was 6.32 µg/mL (≈ 14.2 µM).

Take `CCC(=O)NC(=S)Nc1ccc(N2CCCCC2)cc1`: the IC50 was 3.52 µg/mL (≈ 12.1 µM).

For the compound `CCC(Sc1nc2ccccc2o1)C(=O)Nc1nnc(C)s1` (configuration not stated), the IC50 was 0.75 µg/mL (≈ 2.24 µM).

As to `CCOC(=O)CSc1nnc2c3sc4nc(N5CCOCC5)c5c(c4c3ncn12)CC(C)(C)OC5`, the IC50 was 1.33 µg/mL (≈ 2.58 µM).

As to `N#Cc1ccc(-c2ccc(OCC(N)=O)cc2)cc1`, the concentration for half-maximal inhibition (IC50) is under 0.1 µg/mL.

Take `COC(=O)CSc1[nH]c2ccc(F)cc2c1[N+](=O)[O-]`: the IC50 is 23.2 µg/mL (≈ 81.7 µM).

For `COC(=O)COc1ccc(NC(=O)COc2ccc(C(C)(C)C)cc2)cc1`, the IC50 was 0.17 µg/mL (≈ 0.458 µM).

In the case of `O=C(Oc1ccccc1)c1ccc(S(=O)(=O)N2CCCCC2)cc1`, the IC50 was 0.73 µg/mL (≈ 2.11 µM).

In the case of `Cc1cc(=O)oc2cc(OCC(=O)OC3CCCCC3)ccc12`, the IC50 was 1.47 µg/mL (≈ 4.65 µM).

Turning to `COc1cccc(C2Oc3ccccc3C=C2[N+](=O)[O-])c1OC` (configuration not stated), the IC50 was > 50 µg/mL (inactive).

`CC(C)(C)OC(=O)CS(=O)c1ccc(S(=O)(=O)C(F)(F)F)cc1[N+](=O)[O-]` (configuration not stated): the IC50 is 2.14 µg/mL (≈ 5.13 µM).

Take `Cc1ccc(-c2cc(C(=O)N3CCCc4ccccc43)no2)cc1`: the 50% inhibitory concentration (IC50) is 9.33 µg/mL (≈ 29.3 µM).

`CCOc1ccc(NC(=O)CSc2nc3ccc([N+](=O)[O-])cc3s2)cc1`: the IC50 was 1.99 µg/mL (≈ 5.11 µM).

As to `c1ccc2sc(NC3=NCN(Cc4ccc5c(c4)OCO5)CN3)nc2c1`, the IC50 was 1.52 µg/mL (≈ 4.14 µM).

As for `COc1ccc(/C=C/c2nc3ccccc3c(=O)o2)cc1`, the IC50 is 27.6 µg/mL (≈ 99 µM).

`O=C(NCCc1ccc(Cl)cc1)C12CC3CC(CC(C3)C1)C2`: the IC50 was 13.7 µg/mL (≈ 43 µM).

With `O=C(Nc1ccc(C(F)(F)F)cc1)Nc1cccc(Cl)c1`, the IC50 was 0.2 µg/mL (≈ 0.636 µM).

Regarding `CC(=O)Oc1cccc2ccc(/C=C/c3ccc(F)cc3)nc12`, the IC50 is under 0.1 µg/mL.

In the case of `Oc1ccccc1-c1n[nH]c(/C=C/c2ccc(Br)cc2)n1`, the IC50 was 3.27 µg/mL (≈ 9.56 µM).

As for `Cc1cc(OCCCn2ccnc2)cc(C(C)C)c1`, the half-inhibitory concentration (IC50) was 6.24 µg/mL (≈ 24.2 µM).

`OCc1nc2ccccc2n1CC(O)COc1ccc(OCc2ccccc2)cc1` (configuration not stated): the IC50 was 4.83 µg/mL (≈ 11.9 µM).

Regarding `CCOC(=O)COc1ccc(OCc2ccccc2)cc1`, the IC50 is 1.21 µg/mL (≈ 4.23 µM).

Turning to `Cc1ccc(OCC(O)CN2CCN(CC(O)COc3ccc(C)cc3C)CC2)c(C)c1` (configuration not stated), the IC50 was 3.27 µg/mL (≈ 7.39 µM).

As to `COc1ccccc1-c1coc2cc(OCC(=O)OC3CCCCC3)ccc2c1=O`, the IC50 was 0.24 µg/mL (≈ 0.588 µM).
